Measurements reported in BindingDB's records for PubMed 38988222 (Hebei University of Science & Technology).

Key:
[1] = target: PI3K catalytic subunit beta; assay: Inhibition of P13Kbeta (unknown origin) in the presence of ATP by scintillation proximity assay
[2] = Inhibition of Ribosomal protein S6 kinase in human THP-1 cells by ELISA analysis
[3] = target: PI3K catalytic subunit gamma; assay: Inhibition of P13Kgamma (unknown origin) in the presence of ATP by scintillation proximity assay

IC50 [1] [nM] | IC50 [3] [nM] | Structure (SMILES) | further results
400 |  | Cc1cc(S(=O)(=O)N[C@H]2CC[C@H](O)CC2)ccc1-c1cnc(N)c(C(=O)C2CC2)n1 | 
 |  | CC(NC(=O)c1c(N)nn2cccnc12)c1cc(Cl)c2c(C#N)ncn2c1N1CCS(=O)(=O)C(C)C1 (stereo unspecified) | IC50 [2]: < 300 nM
 | < 50 | Clc1ccc(Cn2cc(-c3ccnc(-c4ncc(-c5ccccc5)[nH]4)c3)cn2)cc1 [US11352340, Example 1] | 
1700 |  | Cc1ncc(-c2cc(-c3ccc(S(=O)(=O)NCC(C)(C)O)cc3C)cnc2N)o1 | 
 | < 100 | Cc1cc(S(=O)(=O)N[C@H]2CC[C@H](O)CC2)ccc1-c1cnc2c(N)c(Cl)ccn12 | 
 | < 100 | Cc1nnc(-c2cc(-c3cc4c(c(S(C)(=O)=O)c3)C(=O)N([C@@H](C)C3CC3)C4)ccn2)[nH]1 [US11396502, Example 12] | 
